System: mitochondrial Na+/Ca2+ exchanger
Assay: fura-2 [Ca2+]i plateau after depolarization in intact neurons
Assay type: cell-based, Aquarana catesbeiana

O=C1CSC(c2ccccc2Cl)c2cc(Cl)ccc2N1 (stereo not shown) [CGP, CGP 37157]
IC50: ~560 nM

Source: article PMC2217215 (The Journal of General Physiology, 2000)
